In brackets after ≈: the same amount, converted by molar mass. Read-outs that look alike come from different tables or passages of the source.
Tests used:
[1] = test system: M. suipneumoniae J2206/183b; assay: Anti-mycoplasmal activity, MIC in Friis broth agarose; format: cell-based; details: Friis broth solidified with 0.9% agarose, 6 days incubation at 37°C
[2] = test system: M. suipneumoniae NB12; assay: as above; format: cell-based; details: Friis broth solidified with 0.9% agarose, 6 days incubation at 37°C
[3] = test system: M. suipneumoniae NCTC 10110; assay: as above; format: cell-based; details: Friis broth solidified with 0.9% agarose, 6 days incubation at 37°C
[4] = test system: Bacillus subtilis 6633; assay: Human bacteria, MIC by serial dilution in nutrient agar; format: cell-based; details: nutrient agar with 5% chocolated horse blood, 18 hours at 37°C
[5] = test system: M. suipneumoniae Str. 11; assay: Anti-mycoplasmal activity, MIC in Friis broth agarose; format: cell-based; details: Friis broth solidified with 0.9% agarose, 6 days incubation at 37°C
[6] = test system: M. bovigenitalium ATCC 14173; assay: as above; format: cell-based; details: Friis broth solidified with 0.9% agarose, 6 days incubation at 37°C
[7] = test system: M. hyorhinis ATCC 25021; assay: as above; format: cell-based; details: Friis broth solidified with 0.9% agarose, 6 days incubation at 37°C
[8] = test system: M. suipneumoniae UCD 1; assay: as above; format: cell-based; details: Friis broth solidified with 0.9% agarose, 6 days incubation at 37°C
[9] = test system: Strep. suis (group D) SPS11; assay: Veterinary bacteria, MIC by two fold serial dilution in agar
Description: (§1) The activity of the compounds of the Examples against various organisms important in veterinary infections was determined using two fold serial dilutions in Diagnostic Sensitivity Test Agar inoculated with 10^4 organisms.

[10] = test system: Erysipelothrix rhusiopathiae NCTC 8163; assay: as above
Description: as §1

[11] = test system: Strep. agalactiae 2788-B; assay: Human bacteria, MIC by serial dilution in nutrient agar; format: cell-based; details: nutrient agar with 5% chocolated horse blood, 18 hours at 37°C
[12] = test system: Staph. aureus Russell; assay: as above; format: cell-based; details: nutrient agar with 5% chocolated horse blood, 18 hours at 37°C
[13] = test system: Neisseria catarrhalis 1502; assay: as above; format: cell-based; details: nutrient agar with 5% chocolated horse blood, 18 hours at 37°C
[14] = test system: M. suipneumoniae MS16; assay: Anti-mycoplasmal activity, MIC in Friis broth agarose; format: cell-based; details: Friis broth solidified with 0.9% agarose, 6 days incubation at 37°C
[15] = test system: Strep. agalactiae SPA1; assay: Veterinary bacteria, MIC by two fold serial dilution in agar
Description: as §1

[16] = test system: E. coli NCTC 10418; assay: as above
Description: as §1

[17] = test system: Staph. aureus Oxford; assay: Human bacteria, MIC by serial dilution in nutrient agar; format: cell-based; details: Staph. aureus Oxford (human panel), nutrient agar with 5% chocolated horse blood, 18 hours at 37°C
[18] = test system: Past. multocida PA2; assay: Veterinary bacteria, MIC by two fold serial dilution in agar
Description: as §1

[19] = Strep. suis (group D) SPS11, Diagnostic Sensitivity Test Agar, 18 hours at 37°C
[20] = Erysipelothrix rhusiopathiae NCTC 8163, Diagnostic Sensitivity Test Agar, 18 hours at 37°C
[21] = Strep. agalactiae SPA1, Diagnostic Sensitivity Test Agar, 18 hours at 37°C
[22] = E. coli NCTC 10418 (veterinary panel), Diagnostic Sensitivity Test Agar, 18 hours at 37°C
[23] = Mesomycoplasma hyopneumoniae, 144 h, read-out: MIC
[24] = Mesomycoplasma hyopneumoniae, NCTC10110, 144 h, read-out: MIC
[25] = Pasteurella multocida, PA2, 18 h
[26] = Mesomycoplasma hyorhinis, ATCC25021, 144 h, read-out: MIC
[27] = Mesomycoplasma hyopneumoniae, UCD1, 144 h, read-out: MIC
[28] = Erysipelothrix rhusiopathiae, NCTC8163, 18 h
[29] = Streptococcus agalactiae, read-out: MIC
[30] = Staphylococcus aureus, read-out: MIC
[31] = Streptococcus agalactiae, SPA1, 18 h
[32] = Escherichia coli, NCTC10418, 18 h

Row | Molecule | MIC [1, 23] [µg/mL] | MIC [2, 23] [µg/mL] | MIC [3, 24] [µg/mL] | MIC ([4]; read-out: MIC) [µg/mL] | MIC [5, 23] [µg/mL] | MIC [18, 25] [µg/mL] | MIC ([6]; 144 h, read-out: MIC) [µg/mL] | MIC [7, 26] [µg/mL] | MIC [8, 27] [µg/mL] | MIC ([9]; Streptococcus suis, 18 h) [µg/mL] | MIC [10, 28] [µg/mL] | MIC [11, 29] [µg/mL] | MIC [12, 30] [µg/mL] | MIC ([13]; read-out: MIC) [µg/mL] | MIC [14, 23] [µg/mL] | MIC [15, 31] [µg/mL] | MIC [16, 32] [µg/mL] | MIC [17, 30] [µg/mL] | further results
1 | 1-(p-Methylsulfinylphenyl)ethyl monate A [Example 8] | – | – | – | – | – | – | – | – | – | – | – | – | – | – | – | – | – | – | MIC [1]: 2.5 µg/mL; MIC [2]: 2.5 µg/mL; MIC [3]: 2.5 µg/mL; MIC [4]: 4.0 µg/mL; MIC [5]: 1.0 µg/mL; MIC [6]: 0.1 µg/mL; MIC [7]: 1.0 µg/mL; MIC [8]: 2.5 µg/mL; MIC [9, 19]: 80 µg/mL; MIC [10, 20]: >80 µg/mL; MIC [11]: 8.0 µg/mL; MIC [12]: 32 µg/mL; MIC [13]: 4.0 µg/mL; MIC [14]: 1.0 µg/mL; MIC [15, 21]: >80 µg/mL; MIC [16, 22]: >80 µg/mL; MIC [17]: 16 µg/mL
2 | CSc1ccc(COC(=O)C=C(C)CC2OCC(CC3OC3C(C)C(C)O)C(O)C2O)cc1 (centres unmarked) [Example 1, p-Methylthiobenzyl monate A] | 0.5 (≈ 1.04 µM) | 0.5 (≈ 1.04 µM) | 0.5 (≈ 1.04 µM) | 0.25 (≈ 0.52 µM) | 0.25 (≈ 0.52 µM) | 0.156 (≈ 0.325 µM) | 0.025 (≈ 0.052 µM) | 0.25 (≈ 0.52 µM) | 0.5 (≈ 1.04 µM) | 2.5 (≈ 5.2 µM) | 10 (≈ 20.8 µM) | 1 (≈ 2.08 µM) | 0.5 (≈ 1.04 µM) | 0.25 (≈ 0.52 µM) | 0.25 (≈ 0.52 µM) | 0.312 (≈ 0.649 µM) | > 80 | 0.5 (≈ 1.04 µM) | –
3 | CC(=CC(=O)OCc1ccc([S+](C)[O-])cc1)CC1OCC(CC2OC2C(C)C(C)O)C(O)C1O (centres unmarked) [Example 2, p- Methylsulphinylbenzyl monate A] | 0.25 (≈ 0.503 µM) | 0.25 (≈ 0.503 µM) | 0.25 (≈ 0.503 µM) | 1 (≈ 2.01 µM) | 0.25 (≈ 0.503 µM) | 0.625 (≈ 1.26 µM) | 0.025 (≈ 0.0503 µM) | 0.1 (≈ 0.201 µM) | 0.25 (≈ 0.503 µM) | 2.5 (≈ 5.03 µM) | 20 (≈ 40.3 µM) | 1 (≈ 2.01 µM) | 2.5 (≈ 5.03 µM) | 0.5 (≈ 1.01 µM) | 0.1 (≈ 0.201 µM) | 0.625 (≈ 1.26 µM) | > 80 | 2.5 (≈ 5.03 µM) | –
4 | CC(=CC(=O)OCc1ccc(S(C)(=O)=O)cc1)CC1OCC(CC2OC2C(C)C(C)O)C(O)C1O (centres unmarked) [Example 3, p-Methylsulphonylbenzyl monate A] | 0.25 (≈ 0.488 µM) | 0.1 (≈ 0.195 µM) | 0.25 (≈ 0.488 µM) | 0.5 (≈ 0.975 µM) | 0.1 (≈ 0.195 µM) | 0.156 (≈ 0.304 µM) | ≤ 0.01 | 0.05 (≈ 0.0975 µM) | 0.25 (≈ 0.488 µM) | 2.5 (≈ 4.88 µM) | 80 (≈ 156 µM) | 0.5 (≈ 0.975 µM) | 2.5 (≈ 4.88 µM) | 0.25 (≈ 0.488 µM) | 0.1 (≈ 0.195 µM) | 0.625 (≈ 1.22 µM) | 80 (≈ 156 µM) | 1 (≈ 1.95 µM) | –
5 | CC(=CC(=O)OCc1cccc([S+](C)[O-])c1)CC1OCC(CC2OC2C(C)C(C)O)C(O)C1O (centres unmarked) [Example 6, m-Methylsulfinylbenzyl monate A] | 10 (≈ 20.1 µM) | 5 (≈ 10.1 µM) | 10 (≈ 20.1 µM) | 12.5 (≈ 25.2 µM) | 5 (≈ 10.1 µM) | 20 (≈ 40.3 µM) | 0.25 (≈ 0.503 µM) | 5 (≈ 10.1 µM) | 10 (≈ 20.1 µM) | > 80 | > 80 | 25 (≈ 50.3 µM) | 12.5 (≈ 25.2 µM) | 12.5 (≈ 25.2 µM) | 5 (≈ 10.1 µM) | 20 (≈ 40.3 µM) | > 80 | 2.5 (≈ 5.03 µM) | –
6 | CC(=CC(=O)OCc1cccc(S(C)(=O)=O)c1)CC1OCC(CC2OC2C(C)C(C)O)C(O)C1O (centres unmarked) [Example 7, m-Methylsulfonylbenzyl monate A] | 1 (≈ 1.95 µM) | 0.5 (≈ 0.975 µM) | 1 (≈ 1.95 µM) | 2.5 (≈ 4.88 µM) | 0.5 (≈ 0.975 µM) | 1.25 (≈ 2.44 µM) | 0.05 (≈ 0.0975 µM) | 0.5 (≈ 0.975 µM) | 1 (≈ 1.95 µM) | 20 (≈ 39 µM) | > 80 | 5 (≈ 9.75 µM) | 5 (≈ 9.75 µM) | 1 (≈ 1.95 µM) | 0.5 (≈ 0.975 µM) | 2.5 (≈ 4.88 µM) | > 80 | 2.5 (≈ 4.88 µM) | –
7 | CC(=CC(=O)OC(C)c1ccc(S(C)(=O)=O)cc1)CC1OCC(CC2OC2C(C)C(C)O)C(O)C1O (centres unmarked) [Example 9, 1-(p-Methylsulfonylphenyl)ethyl monate A] | 1 (≈ 1.9 µM) | 1 (≈ 1.9 µM) | 1 (≈ 1.9 µM) | 1 (≈ 1.9 µM) | 0.5 (≈ 0.949 µM) | 2.5 (≈ 4.75 µM) | 0.05 (≈ 0.0949 µM) | 0.5 (≈ 0.949 µM) | 1 (≈ 1.9 µM) | 40 (≈ 76 µM) | 80 (≈ 152 µM) | 8 (≈ 15.2 µM) | 16 (≈ 30.4 µM) | 2 (≈ 3.8 µM) | 0.5 (≈ 0.949 µM) | 80 (≈ 152 µM) | > 80 | 4 (≈ 7.6 µM) | –
8 | m-Methylthiobenzyl monate A [Example 5] | – | – | – | – | – | – | – | – | – | – | – | – | – | – | – | – | – | – | MIC [1]: 0.5 µg/mL; MIC [2]: 0.5 µg/mL; MIC [3]: 0.5 µg/mL; MIC [4]: 0.1 µg/mL; MIC [5]: 0.25 µg/mL; MIC ([18]; Past. multocida PA2, Diagnostic Sensitivity Test Agar, 18 hours at 37°C): .625 µg/mL; MIC [6]: 0.025 µg/mL; MIC [7]: 0.25 µg/mL; MIC [8]: 0.5 µg/mL; MIC [9, 19]: 1.25 µg/mL; MIC [10, 20]: 5 µg/mL; MIC [11]: 1.0 µg/mL; MIC [12]: 1.0 µg/mL; MIC [13]: 0.5 µg/mL; MIC [14]: 0.25 µg/mL; MIC [15, 21]: .312 µg/mL; MIC [16, 22]: >80 µg/mL; MIC [17]: 0.5 µg/mL

— patent EP0093484A2, “Antibacterial monic acid derivatives” (BEECHAM GROUP PLC, priority 1982, dated 1983)
